Measured values: ChEMBL document CHEMBL4130453, “Discovery of an Isothiazole-Based Phenylpropanoic Acid GPR120 Agonist as a Development Candidate for Type 2 Diabetes” (ACS Med Chem Lett, 2017)

Experiments:
[1] = Metabolic stability in mouse liver microsomes assessed as parent compound remaining measured at 10 mins; assay type: ADME, microsome
[2] = molecular target: Free fatty acid receptor 4 (Homo sapiens, UniProt Q5NUL3); experiment: Agonist activity at human GPR120 short splice variant expressed in HEK293 cells assessed as increase in intracellular calcium flux incubated for 30 mins measured for 300 secs at 1 sec interval by Fluo-4 NW dye based FLIPR assay; assay type: functional, cell-based
[3] = Metabolic stability in rat liver microsomes assessed as parent compound remaining measured at 10 mins; assay type: ADME, microsome
[4] = Metabolic stability in human liver microsomes assessed as parent compound remaining measured at 10 mins; assay type: ADME, microsome; conditions: read-out: Stability
[5] = molecular target: T1, Free fatty acid receptor 4 (Homo sapiens, UniProt Q5NUL3); experiment: Agonist activity at PK-tagged human GPR120 long isoform expressed in CHOK1 cells co-expressing EA-tagged beta-arrestin assessed as beta-gal enzyme complex formation after 90 mins by enzyme fragment complementation assay; assay type: cell-based
T1 sequence (Q5NUL3 whole entry): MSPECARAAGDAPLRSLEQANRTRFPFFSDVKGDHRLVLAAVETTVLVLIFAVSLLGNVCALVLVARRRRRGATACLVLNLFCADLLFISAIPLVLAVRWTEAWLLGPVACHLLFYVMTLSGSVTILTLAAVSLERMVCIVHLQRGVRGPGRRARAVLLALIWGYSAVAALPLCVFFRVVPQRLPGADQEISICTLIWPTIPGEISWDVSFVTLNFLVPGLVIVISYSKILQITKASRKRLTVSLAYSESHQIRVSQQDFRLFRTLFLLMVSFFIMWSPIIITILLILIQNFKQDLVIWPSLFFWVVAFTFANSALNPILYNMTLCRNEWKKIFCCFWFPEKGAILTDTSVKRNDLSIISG

Mus musculus = experiment: Antidiabetic activity in diet-induced obese C57BL/6 mouse assessed as reduction in plasma glucose delta AUC level at 1 mg/kg, po administered 30 mins prior to glucose challenge measured 90 mins post glucose challenge by OGTT relative to control; assay type: functional; design: scale not given: the % may be the effect or the level left
[6] = liver microsomes, read-out: Stability

| SMILES | EC50 [2] [nM] | further results |
| --- | --- | --- |
| Cc1c(CCC(=O)O)ccc(OCc2csnc2-c2ccc(Cl)cc2)c1C | 215 | remaining at 10 min [1, 6]: 73%; remaining at 10 min [3, 6]: 71%; remaining at 10 min [4]: 86% |
| Cc1c(CCC(=O)O)ccc(OCc2c(-c3ccc(Cl)cc3)nsc2C(F)(F)F)c1C | 155 | Stability ([1]; microsomes, 10 min): 127%; Stability ([3]; microsomes, 10 min): 133%; remaining at 10 min [4]: 104% |
| COc1ccc(-c2nsc(C(F)(F)F)c2COc2c(F)cc(CCC(=O)O)cc2F)cc1 | 75 | – |
| O=C(O)CCc1cc(F)c(OCc2c(-c3ccc(Cl)cc3)nsc2C(F)(F)F)c(F)c1F | 104 | – |
| O=C(O)CCc1cc(F)c(OCc2c(-c3ccc(Cl)cc3)nsc2C(F)(F)F)c(F)c1 | 51 | – |
| CCc1ccc(-c2nsc(OC)c2COc2ccc(CCC(=O)O)c(C)c2C)cc1 | 920 | – |
| CCc1ccc(-c2nsc(C(C)C)c2COc2ccc(CCC(=O)O)c(C)c2C)cc1 | 1640 | – |
| CCc1ccc(-c2nsc(CC)c2COc2ccc(CCC(=O)O)c(C)c2C)cc1 | 680 | – |
| Cc1cc(OCc2c(-c3ccc(Cl)cc3)nsc2C(F)(F)F)c(F)cc1CCC(=O)O | 121 | – |
| O=C(O)CCc1ccc(OCc2c(-c3ccc(Cl)cc3)nsc2C(F)(F)F)c(F)c1F | 86 | – |
| Cc1c(CCC(=O)O)ccc(OCc2c(C(F)(F)F)nsc2-c2ccc(Cl)cc2)c1C | 94 | EC50 [5]: 105 nM |
| Cc1c(CCC(=O)O)cc(F)c(OCc2c(-c3ccc(Cl)cc3)nsc2C(F)(F)F)c1F | 99 | – |
| CCc1ccc(-c2nsc(C(F)(F)F)c2COc2ccc(CCC(=O)O)c(C)c2C)cc1 | 120 | EC50 [5]: 210 nM |
| N#C[C@@H]1C[C@@H]2C[C@@H]2N1C(=O)[C@@H](N)C12CC3CC(CC(O)(C3)C1)C2 [SAXAGLIPTIN ANHYDROUS] | – | Activity (Mus musculus): 87% |
| CCc1ccc(-c2nsc(C(F)(F)C(F)(F)F)c2COc2ccc(CCC(=O)O)c(C)c2C)cc1 | 332 | – |
